What was measured:
nematodes = settings: depending on the particular species (Terada, 1992); cited from earlier work
HC110-R [1] = format: binding, Haemonchus contortus; settings: renatured; fragment expressed in E. coli
Text: Since denaturation of proteins is necessary for carrying out SDS-PAGE, there may be destruction of conformation-dependent epitopes. Antibodies or proteins which specifically recognize such epitopes may therefore no longer bind. […] BAY44-4400 differs from PF1022A by 2 morpholine residues which are covalently bonded to the phenyl rings of the two D-phenyllactyl radicals of PF1022A. […] For this purpose, total protein from untransfected HEK-293 cells and HEK-293 cells which transiently express HC110-R-Myc/His, and from the 54 kDa N terminus and the 21 kDa C terminus of HC110-R which were expressed in E. coli, were fractionated by SDS-PAGE, renatured and blotted in the usual way. […] In addition, a partially renatured SDS polyacrylamide gel with the protein fractions of untransfected HEK-293 cells, HEK-293 cells transiently transfected with HC110-R-Myc/His, and the N terminus of HC110-R expressed in E. coli and total protein from H. contortus was blotted, incubated with PF1022A-biotin and detected using streptavidin HRP.

HC110-R [2] = experiment: PF1022A binding to HC110-R-transfected HEK-293 cells by FACScan; design: species or system Haemonchus contortus; settings: for Phycoerythrin fluorescence: 0.5 μg/ml PF1022A-biotin + streptavidin-phycoerythrin
Experimental: (§1) For this purpose, HEK-293 cells were transiently transfected with HC110-R-GFP or GFP-HC110-R or else transiently cotransfected with HC110-R-Myc/His and GFP. […] 24 h after the transfection, the cells were incubated with biotinylated PF1022A, and PF1022A-bound cells were detected using streptavidin-phycoerythrin and were finally fixed. A negative control of cells transfected with HC110-R-GFP was incubated only with streptavidin-phycoerythrin without PF1022A-biotin.
(§2) Phycoerythrin has—like TRITC—an absorption spectrum which overlaps with EGFP, while the emission spectra are adequately separated, so that both fluorochromes can be excited at only one wavelength. Cell detritus was excluded from the measurement of the fluorescence intensity by setting a ‘gate’ on the main cell population. For quantitative evaluation, the limits were fixed for negative, unstained and positive, GFP-fluorescent cells on the basis of the untransfected and GFP-transfected cells.
(§3) In each case 5×10^5 HEK-293 cells which were not transfected, were transiently transfected with GFP, HC110-R-GFP, GFP-HC110-R, β2-R-GFP and M1-R-GFP, and transiently cotransfected with HC110-R-Myc/His and GFP were incubated, 24 h after the transfection, with 0.5 μg/ml PF1022A-biotin and streptavidin-phycoerythrin (1:300) and then fixed. As negative controls, HC110-R-GFP-transfected cells were incubated only with streptavidin-phycoerythrin, without PF1022A-biotin. […] The standard deviation is derived by determining the means of triplicate mixtures.

HEK-293 cells = experiment: PF1022A binding by FACScan, untransfected and GFP-transfected control cells; design: species or system human; settings: for Phycoerythrin fluorescence: 0.5 μg/ml PF1022A-biotin + streptavidin-phycoerythrin
Experimental: as §1, §2, §3

β2-R-GFP = target: T1, β2-R-GFP (Mus musculus, UniProt P18762); experiment: PF1022A binding by FACScan, β2-R-GFP control cells
T1 construct: was fused with a C-terminal EGFP tag by amplifying the full-length cDNA with the P117 mouse 2AR XhoI 5′ primer; expressed in transfected cells; host or cells: HEK-293, transient (pEGFP-N3)
Experimental: as §1, §2
(§4) In each case 5×10^5 HEK-293 cells which were not transfected, were transiently transfected with GFP, HC110-R-GFP, GFP-HC110-R, β2-R-GFP and M1-R-GFP, and transiently cotransfected with HC110-R-Myc/His and GFP were incubated, 24 h after the transfection, with 0.5 μg/ml PF1022A-biotin and streptavidin-phycoerythrin (1:300) and then fixed. […]

HC110-R [3] = format: binding, Haemonchus contortus; settings: mixture of N terminus and C terminus expressed in E. coli
Experimental: In a control mixture with 4 mg of Dynal beads, TST buffer was added in place of PF1022A. Excess PF1022A-biotin was removed by magnetic separation before a mixture of the HC110-R terminus and C terminus expressed in E. coli and previously purified by affinity chromatography was added. After renewed magnetic separation to remove unbound HC110-R fragments, one aliquot derived from 2 mg, and one from 4 mg, of Dynal beads was fractionated by SDS-PAGE and blotted. Detection of the precipitate took place via the N-terminally fused His tag with a mouse anti-His IgG and a rabbit anti-mouse IgG HRP antibody. […] Nonspecific binding of the N or C terminus of HC110-R to the streptavidin-coupled beads was precluded by adding no biotinylated PF1022A to a reaction mixture.

M1-R-GFP = target: T2, M1-R-GFP (Homo sapiens, UniProt P11229); experiment: PF1022A binding by FACScan, M1-R-GFP control cells
T2 construct: The full-length cDNA of a human muscarinic receptor 1 (huM1Rez); expressed in transfected cells; host or cells: HEK-293, transient (pEGFP-N3)
T2 sequence (P11229 1-460): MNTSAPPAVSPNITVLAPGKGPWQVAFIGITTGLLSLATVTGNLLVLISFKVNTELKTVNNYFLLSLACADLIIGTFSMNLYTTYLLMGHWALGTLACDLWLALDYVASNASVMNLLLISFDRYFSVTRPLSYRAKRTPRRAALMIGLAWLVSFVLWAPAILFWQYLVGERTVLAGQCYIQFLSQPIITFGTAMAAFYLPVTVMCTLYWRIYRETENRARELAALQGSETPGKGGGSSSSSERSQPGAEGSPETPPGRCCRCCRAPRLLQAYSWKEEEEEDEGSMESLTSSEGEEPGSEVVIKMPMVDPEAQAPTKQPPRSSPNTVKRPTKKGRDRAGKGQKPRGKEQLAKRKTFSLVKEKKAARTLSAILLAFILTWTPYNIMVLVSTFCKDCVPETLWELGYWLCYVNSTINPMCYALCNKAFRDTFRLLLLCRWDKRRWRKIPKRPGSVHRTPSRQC
Experimental: as §1, §2, §4

HC110-R [4] = format: cell-based, Haemonchus contortus; settings: 4 ng/ml or 400 ng/ml, 90 minutes preincubation, removed before α-LTX
Experimental: The intracellular free Ca^2+ concentration [Ca^2+]i was measured in COS-7 and HEK293 cells transiently transfected with the HC110-R-EGFP or β2-AR-EGFP construct using the calcium imaging method (see also FIG. 11). In each case 2×10^5 COS-7 and HEK293 cells were applied to a 42 mm cover glass coated with 1% gelatine in 55 mm tissue culture dishes with 5 ml of DMEM medium (with 10% FCS and pen/strep). The transfection took place with the aid of the non-liposomal transfection reagent FuGENE 6 (Roche Molecular Biochemicals, Mannheim). […] Constructs of the HC110-R full-length clone with a GFP tag fused in the correct reading frame, and the complete cDNA of the β2-adrenergic receptor which had likewise been provided with a GFP tag at the 3′ end, were transfected.
After the incubation, the cells loaded with Fura-2/AM were examined under an inverted microscope (Zeiss, Axiovert, Germany) and, in parallel with this, in a digital imaging fluorescence microscope (PTI) and differentiated into transfected and untransfected cells at a wavelength of 440 and 490 nm respectively. On average, 5-7 transfected and non transfected cells were selected by fixing an ROI (region of interest). The extinction was measured at 340 nm (calcium-bound Fura-2/AM) and 380 nm (free Fura-2/AM), and the emission was measured at 510 nm. Evaluation took place using the Image Master 1.x software by forming the quotient of 340:510 nm, 380:510 nm and the ratio of 340/380:510 nm (background corrected images) as a function of the agent added.
Agents were always added 6 min after starting the measurement by removing an appropriate volume of Na^+ HBS buffer and pipetting the agent directly into the sample vessel for a further 30 to 50 min. The total volume in the sample vessel was constant at 1.5 ml throughout the experiment. […] Addition of CdCl2 and nifedipine took place immediately at the start of the experiment and before addition of α-LTX, and EGTA was added both at the start of the experiment and 4 min after the addition of α-LTX. Dissolved α-LTX was present in a concentration of 300 nM in 50 mM tris-HCl, pH 8.0; BAY 44-4400 was initially dissolved in pure DMSO (stock solutions between 0.004 and 10 μg/ml). The stock solutions were adjusted to the required concentration in the Na^+ HBS buffer. The maximum amount of the active substance BAY 44-4400 which could be dissolved at a final concentration of 0.1% DMSO was found by setting up serial dilutions in Na^+ HBS.
The data were analyzed using the Excel 98 table calculation programme. The results are derived from at least 2-4 reproduced experiments on in each case 4-8 transfected and un-transfected cells.

T1 sequence (P18762 whole entry, the tested form may be a part): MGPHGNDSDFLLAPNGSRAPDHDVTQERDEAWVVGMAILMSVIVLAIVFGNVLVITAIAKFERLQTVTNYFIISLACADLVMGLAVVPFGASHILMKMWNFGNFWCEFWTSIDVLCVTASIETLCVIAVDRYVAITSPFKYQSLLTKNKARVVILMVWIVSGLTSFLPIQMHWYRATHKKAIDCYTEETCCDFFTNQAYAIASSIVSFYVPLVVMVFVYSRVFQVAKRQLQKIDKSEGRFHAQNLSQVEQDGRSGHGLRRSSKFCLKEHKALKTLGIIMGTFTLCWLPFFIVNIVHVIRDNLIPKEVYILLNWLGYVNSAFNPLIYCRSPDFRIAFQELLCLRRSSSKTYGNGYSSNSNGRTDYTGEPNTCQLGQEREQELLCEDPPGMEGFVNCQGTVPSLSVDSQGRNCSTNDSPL

## CC(C)C[C@H]1C(=O)O[C@H](Cc2ccccc2)C(=O)N(C)[C@@H](CC(C)C)C(=O)O[C@H](C)C(=O)N(C)[C@@H](CC(C)C)C(=O)O[C@H](Cc2ccccc2)C(=O)N(C)[C@@H](CC(C)C)C(=O)O[C@H](C)C(=O)N1C [PF1022A, cyclo(-D-Lac-L-MeLeu-D-PhLac-L-MeLeu-)2]
nematodes
  concentrations at which effect on nematodes is exerted: 100 to 800 ng/mL
HC110-R [1]
  binding to 21 kDa C terminus of HC110-R: no specific PF1022A binding
HC110-R [2]; cells cotransfected with HC110-R-Myc/His and GFP
  percentage of green-fluorescent cells that bind PF1022A: 44.5%
HC110-R [2]; cells expressing GFP-HC110-R
  percentage of green-fluorescent cells that bind PF1022A: 26.8%
HC110-R [2]; cells expressing HC110-R-GFP
  percentage of green-fluorescent cells that bind PF1022A: 41.2%
HC110-R [2]; plasmid GFP-HC110-R
  Phycoerythrin fluorescence: 2.5 ± 0.3%
HC110-R [2]; plasmid HC110-R-GFP, nonspecific staining subtracted
  Phycoerythrin fluorescence: 4.5 ± 0.4%
HC110-R [2]; plasmids HC110-R-Myc/His + GFP
  Phycoerythrin fluorescence: 10.3 ± 0.7%
HEK-293 cells; cells expressing GFP
  percentage of green-fluorescent cells that bind PF1022A: 7.5%
HEK-293 cells; plasmid GFP
  Phycoerythrin fluorescence: 1.3 ± 0.4%
HEK-293 cells; untransfected
  Phycoerythrin fluorescence: 0 ± 0%
β2-R-GFP
  Phycoerythrin fluorescence: 0.8 ± 0.1%
β2-R-GFP; cells expressing 2-R-GFP
  percentage of green-fluorescent cells that bind PF1022A: 9.9%
HC110-R [3]
  precipitation of HC110-R fragments: Only the N-terminal 54 kDa region of HC110-R is precipitated
M1-R-GFP
  Phycoerythrin fluorescence: 1.6 ± 0.1%
M1-R-GFP; cells expressing M1-R-GFP
  percentage of green-fluorescent cells that bind PF1022A: 19.2%
HC110-R [4]
  change in response to α-LTX after preincubation: no significant change in their response to α-LTX

From US20050037436A1, “Test systems and the use thereof for identifying and characterizing compounds” (priority 2000, published 2005)
